Experimental data as given in patent US20160304861A1, “SPATIAL MULTIPLEXING FOR MULTISIGNAL CELLULAR IMAGING” (Massachusetts Institute of Technology, priority 2015, published 2016).

Tested on: Gcamp6f sensor cluster in HEK293 cells
Assay: Gcamp6f sensor cluster response to ionomycin treatment in HEK293 cells
Assay type: cell-based
Settings: 20 mM ionomycin in DMSO added at around 2 minutes, FIG. 1C
Method: HEK cells were transfected with the TransIT®-293 transfection reagent (Minis). Cells were plated in a 24-well plate, transfected with 50 ng plasmids per well after 18-24 hours plating, and imaged 24 hours after transfection. Mouse neurons were transfected with the calcium phosphate transfection kit (Invitrogen). Neurons were plated in a 24-well plate, transfected 96 hours after plating with 1500 ng plasmids per well and were imaged at least 48 hours after transfection. For co-transfection in neurons, two plasmids were mixed as 1:1 ratio, maintaining a total of 1500 ng plasmids per well. For HEK experiments, NucBlue Life cell stain and ReadyProbes reagent (Life Technologies) were added to stain the nucleus. Mfn1-null MEF cells (ATCC® CRL-2992™) were plated in a 24-well glass-bottom plate with 50-70% cell confluency. Plasmids were then transfected with a mixture of 200 ng plasmid and […] Trans-IT X2 (Mirus) per well. Transfected cells were incubated at 37° C. for 48-72 hours to establish the expression.
An inverted epi-fluorescence Nikon Ti Eclipse equipped with SPECTRA X light engine (LumenCor), Zyla5.5 camera (Andor), 100× 1.45 NA oil objective lens (Nikon), 20× 0.75 NA objective lens (Nikon), and standard CFP-YFP FRET filter sets (Semrock) were used to image the fluorescent patterns. FRET imaging typically lasts for 10 min. […]

Q: `C[C@H](CCC(=O)O)C[C@H](C)C[C@H](C)C(=O)/C=C(\O)[C@H](C)C[C@H](C)C/C=C/[C@@H](C)[C@@H](O)[C@@H](C)[C@@H](O)C[C@@H]1CC[C@@](C)([C@H]2CC[C@@](C)([C@@H](C)O)O2)O1` [ionomycin] was tested. Which “fluorescence by the Gcamp6f sensor cluster” value did it give?
A: incrase in fluorescence
